Measurements: patent publication US20080221056A1, “Early Detection and Prognosis of Colon Cancers” (JOHNS HOPKINS UNIVERSITY, priority 2007, published 2008)

System: HCT116 cells
Test: Whole transcriptome microarray of gene re-expression in drug-treated CRC cells (11 hypermethylated guide genes)
Format: cell-based, human
Method: Cell culture and treatment. HCT116 cells and isogenic genetic knockout derivatives were maintained as previously described (14). For drug treatments, log phase CRC cells were cultured in McCoys 5A media (Invitrogen) containing 10% BCS and 1× penicillin/streptomycin with 5 μM 5aza-deoxycytidine (DAC) (Sigma; stock solution: 1 mM in PBS) for 96 hours, replacing media and DAC every 24 hours. Cell treatment with 300 nM Trichostatin A (Sigma; stock solution: 1.5 mM dissolved in ethanol) was performed for 18 hours. Control cells underwent mock treatment in parallel with addition of equal volume of PBS or ethanol without drugs.
Microarray analysis. Total RNA was harvested from log phase cells using Triazol (Invitrogen) and the RNeasy kit (Qiagen) according to the manufacturers instructions, including a DNAase digestion step. RNA was quantified using the Nanoprop ND-100 followed by quality assessment with 2100 Bioanalyzer (Agilent Technologies). RNA concentrations for individual samples were greater than 200 ng/ul, with 28s/18s ratios greater than 2.2 and RNA integrity of 10 (10 scored as the highest). Sample amplification and labeling procedures were carried out using the Low RNA Input Fluorescent Linear Amplification Kit (Agilent Technologies) according to the manufacturers instructions. The labeled cRNA was purified using the RNeasy mini kit (Qiagen) and quantified. RNA spike-in controls (Agilent Technologies) were added to RNA samples before amplification. 0.75 microgram of samples labeled with Cy3 or Cy5 were mixed with control targets (Agilent Technologies), assembled on Oligo Microarray, hybridized, and processed according to the Agilent microarray protocol. Scanning was performed with the Agilent G2565BA microarray scanner using settings recommended by Agilent Technologies.
Data analysis. All arrays were subject to quality checks recommended by the manufacturer. […] The log ratio of red signal to green signal was calculated after background-subtraction and LoEss normalization as implemented in the limma package from Bioconductor (25,26). […]

| SMILES | guide genes increased 1.3 fold or more (total) (5 μM DAC for 96 hours, 11 known hypermethylated, silenced guide genes) [%] | guide genes increased 2-fold or more (5 μM DAC for 96 hours, 11 known hypermethylated, silenced guide genes (5 of 11)) [%] | response of guide gene expression to TSA (300 nM Trichostatin A for 18 hours, zone = expression increase <1.4 fold) |
| --- | --- | --- | --- |
| Nc1ncn([C@H]2C[C@H](O)[C@@H](CO)O2)c(=O)n1 [DAC, 5-aza-2′-deoxycytidine] | 73 | 45 |  |
| CC(/C=C/C(=O)NO)=C\[C@@H](C)C(=O)c1ccc(N(C)C)cc1 [TSA, trichostatin A] |  |  | All tested genes remained within the TSA non-responsive zone |
